± gives the standard deviation of the averaged measurements.
Columns and labels:
MK-1775 = compound: C=CCn1c(=O)c2cnc(Nc3ccc(N4CCN(C)CC4)cc3)nc2n1-c1cccc(C(C)(C)O)n1 [MK-1775]; test: surviving fraction relative to DMSO-only wells; higher = less growth inhibition; conditions: exposure time: 5 days
Method in brief: (§1)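 Lines were retained only if, across three screens, replicate Pearson r was >0.7 and median Z' was >0.3. Viability was measured as CellTiter-Glo luminescence and reported as surviving fraction relative to the median of DMSO-only wells. Readings followed 10 minutes at room temperature, after log-phase tumour cells seeded at 250–500 per well in 384-well plates had been exposed, from 24 hours after seeding, continuously for five days to inhibitors at 0.5, 1, 5, 10, 50, 100, 500 and 1000 nM.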

[1] = compound: CCc1cc(Nc2nccc(-c3c(-c4ccc(OC)c(C(=O)Nc5c(F)cccc5F)c4)nc4ccccn34)n2)c(OC)cc1N1CCC(N2CCN(S(C)(=O)=O)CC2)CC1; test: as above; conditions: exposure time: 5 days
Method in brief: as §1

Test System | surviving fraction (MK-1775; 0.5 nM) | surviving fraction (MK-1775; 1 nM) | surviving fraction (MK-1775; 5 nM) | surviving fraction (MK-1775; 10 nM) | surviving fraction (MK-1775; 50 nM) | surviving fraction (MK-1775; 100 nM) | surviving fraction (MK-1775; 500 nM) | surviving fraction (MK-1775; 1000 nM) | surviving fraction ([1]; 0.5 nM) | surviving fraction ([1]; 1 nM) | surviving fraction ([1]; 5 nM) | surviving fraction ([1]; 10 nM) | surviving fraction ([1]; 50 nM) | surviving fraction ([1]; 100 nM) | surviving fraction ([1]; 500 nM) | surviving fraction ([1]; 1000 nM)
MDAMB436 BREAST | 0.978 ± 0.045 | 0.969 ± 0.028 | 0.948 ± 0.031 | 0.902 ± 0.081 | 0.79 ± 0.073 | 0.66 ± 0.023 | 0.312 ± 0.013 | 0.317 ± 0.021 | 1.01 ± 0.065 | 0.997 ± 0.064 | 0.933 ± 0.063 | 0.965 ± 0.041 | 0.961 ± 0.11 | 0.967 ± 0.071 | 1.04 ± 0.07 | 0.887 ± 0.11
MDAMB453 BREAST | 1.09 ± 0.021 | 1.07 ± 0.034 | 1.13 ± 0.048 | 1.06 ± 0.052 | 1.14 ± 0.076 | 0.959 ± 0.1 | 0.214 ± 0.041 | 0.161 ± 0.021 | 1.02 ± 0.037 | 1.09 ± 0.12 | 1.14 ± 0.043 | 1.08 ± 0.054 | 1.12 ± 0.029 | 1.16 ± 0.031 | 1.02 ± 0.061 | 1.07 ± 0.086
MDAMB468 BREAST | 1.06 ± 0.041 | 1.05 ± 0.049 | 1.07 ± 0.089 | 1.02 ± 0.043 | 1.12 ± 0.04 | 0.985 ± 0.029 | 0.259 ± 0.026 | 0.0773 ± 0.0029 | 0.909 ± 0.09 | 1.04 ± 0.053 | 1.12 ± 0.047 | 1.14 ± 0.041 | 1.04 ± 0.091 | 1.17 ± 0.073 | 1.04 ± 0.07 | 1.06 ± 0.041
MFM223 BREAST | 1.16 ± 0.057 | 1.14 ± 0.04 | 1.06 ± 0.067 | 1.14 ± 0.036 | 0.958 ± 0.045 | 0.545 ± 0.05 | 0.161 ± 0.0064 | 0.192 ± 0.02 | 1.14 ± 0.05 | 1.15 ± 0.036 | 1.1 ± 0.08 | 1.15 ± 0.027 | 1.15 ± 0.012 | 1.21 ± 0.06 | 1.19 ± 0.033 | 1.05 ± 0.079
MG63 BONE | 1.02 ± 0.033 | 0.999 ± 0.026 | 1.07 ± 0.027 | 1.056 ± 0.0072 | 1.06 ± 0.053 | 1 ± 0.068 | 0.244 ± 0.025 | 0.121 ± 0.0076 | 0.953 ± 0.012 | 0.987 ± 0.028 | 1.005 ± 0.01 | 1.06 ± 0.026 | 0.968 ± 0.034 | 1.01 ± 0.014 | 0.956 ± 0.029 | 0.976 ± 0.047
MHM BONE | 0.981 ± 0.02 | 0.9753 ± 0.0067 | 1.04 ± 0.015 | 1.01 ± 0.033 | 1.02 ± 0.025 | 1.03 ± 0.025 | 0.638 ± 0.013 | 0.5597 ± 0.00058 | 0.97 ± 0.021 | 0.974 ± 0.032 | 1.03 ± 0.011 | 0.998 ± 0.011 | 1.027 ± 0.0053 | 1 ± 0.03 | 0.982 ± 0.055 | 0.975 ± 0.029
NCIH441 LUNG | 1.11 ± 0.085 | 1.04 ± 0.031 | 1.03 ± 0.029 | 0.986 ± 0.049 | 0.944 ± 0.065 | 0.794 ± 0.044 | 0.428 ± 0.057 | 0.369 ± 0.044 | 0.964 ± 0.035 | 0.977 ± 0.13 | 0.99 ± 0.029 | 0.989 ± 0.059 | 0.997 ± 0.04 | 1.07 ± 0.065 | 0.917 ± 0.072 | 0.979 ± 0.092
NOS1 BONE | 0.939 ± 0.1 | 1.08 ± 0.028 | 0.945 ± 0.02 | 0.764 ± 0.039 | 0.209 ± 0.011 | 0.158 ± 0.02 | 0.223 ± 0.029 | 0.206 ± 0.036 | 1 ± 0.038 | 1.05 ± 0.051 | 1.16 ± 0.14 | 1.35 ± 0.26 | 1.22 ± 0.21 | 1.14 ± 0.12 | 1.12 ± 0.11 | 0.949 ± 0.043
NY BONE | 1.04 ± 0.056 | 1.01 ± 0.014 | 1.1 ± 0.017 | 1.03 ± 0.013 | 0.638 ± 0.04 | 0.254 ± 0.016 | 0.113 ± 0.0076 | 0.0633 ± 0.0021 | 0.969 ± 0.012 | 0.982 ± 0.027 | 1.023 ± 0.0066 | 1.09 ± 0.014 | 1.03 ± 0.039 | 1.04 ± 0.023 | 0.993 ± 0.025 | 0.977 ± 0.024
OS25HAL BONE | 0.9753 ± 0.0045 | 0.9973 ± 0.0092 | 1.03 ± 0.019 | 1.02 ± 0.025 | 0.973 ± 0.042 | 0.554 ± 0.026 | 0.0463 ± 0.0032 | 0.0417 ± 0.0025 | 0.997 ± 0.011 | 1.02 ± 0.011 | 1.032 ± 0.01 | 1.04 ± 0.037 | 1.02 ± 0.015 | 1.04 ± 0.018 | 0.948 ± 0.055 | 0.944 ± 0.05
OSHN BONE | 1.06 ± 0.03 | 1.06 ± 0.026 | 1.08 ± 0.04 | 1.05 ± 0.039 | 1.08 ± 0.04 | 1.06 ± 0.046 | 0.143 ± 0.016 | 0.0503 ± 0.0025 | 1.02 ± 0.018 | 1.04 ± 0.036 | 1.03 ± 0.038 | 1.06 ± 0.034 | 1.02 ± 0.033 | 1.05 ± 0.04 | 1.01 ± 0.023 | 1.04 ± 0.048
PCI30 HEADNECK | 0.926 ± 0.1 | 0.937 ± 0.054 | 1.03 ± 0.036 | 1.05 ± 0.16 | 0.884 ± 0.069 | 0.745 ± 0.021 | 0.195 ± 0.02 | 0.137 ± 0.0085 | 0.889 ± 0.028 | 0.961 ± 0.15 | 1 ± 0.064 | 1.04 ± 0.045 | 0.947 ± 0.054 | 1.07 ± 0.032 | 0.989 ± 0.065 | 0.979 ± 0.065
RDES SOFT TISSUE | 1.17 ± 0.088 | 1.09 ± 0.12 | 1.1 ± 0.077 | 1.08 ± 0.13 | 0.871 ± 0.3 | 1.15 ± 0.18 | 0.406 ± 0.055 | 0.187 ± 0.036 | 1.25 ± 0.081 | 1.13 ± 0.14 | 1.19 ± 0.15 | 1.2 ± 0.043 | 0.998 ± 0.2 | 1.09 ± 0.043 | 0.924 ± 0.1 | 1.25 ± 0.21
S68 BREAST | 1.17 ± 0.41 | 1.18 ± 0.27 | 1.03 ± 0.11 | 0.848 ± 0.13 | 0.663 ± 0.093 | 0.329 ± 0.048 | 0.101 ± 0.008 | 0.0703 ± 0.011 | 0.916 ± 0.045 | 1.22 ± 0.11 | 1.29 ± 0.2 | 1.06 ± 0.18 | 1.1 ± 0.26 | 1.06 ± 0.27 | 0.688 ± 0.022 | 0.737 ± 0.089
SAOS2 BONE | 1.1 ± 0.019 | 1.01 ± 0.057 | 1.05 ± 0.091 | 1.07 ± 0.055 | 0.887 ± 0.033 | 0.637 ± 0.027 | 0.176 ± 0.024 | 0.06 ± 0.0087 | 1.1 ± 0.024 | 1.04 ± 0.025 | 1.11 ± 0.035 | 1.144 ± 0.0087 | 1.09 ± 0.016 | 1.19 ± 0.025 | 1.16 ± 0.045 | 1.11 ± 0.018
SCC003 HEADNECK | 1.12 ± 0.07 | 1.08 ± 0.11 | 1.1 ± 0.12 | 1.11 ± 0.06 | 0.927 ± 0.026 | 0.874 ± 0.05 | 0.421 ± 0.08 | 0.247 ± 0.019 | 0.958 ± 0.069 | 1.13 ± 0.031 | 0.966 ± 0.024 | 1.1 ± 0.12 | 1.03 ± 0.14 | 1.1 ± 0.19 | 1.03 ± 0.019 | 1.08 ± 0.085
